Holding throughout (assay): NCI tumour cell line growth inhibition, 48 h
Assay [1] concerns DU-145 prostate.
For assay [2], the system named is HOP-92 NSCLC.
The subject of assay [3] is EKVX NSCLC.
Assay [4] has as its system T-47D breast.
For assay [5], the system named is OVCAR-3 ovarian.
In assay [6] the test system is SNB-75 CNS.
The test system of assay [7] is MDA-MB-231 breast.
Assay [8] relates to A549 NSCLC.
Assay [9] concerns UO-31 renal.
For assay [10], the system named is SN12C renal.

“And” between values parts separate entries of the source, which are not always exact repeats. Identical values can stand only once.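 Dose response: 5 concentrations. Exposure: 48 h. Format: 96-well plates. Endpoint: linear interpolation; highest concentration if not reached. Here, GI50 denotes the concentration required for 50% inhibition of growth. TGI: total growth inhibition.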

Take `COc1cc(OC)cc(-c2cncn2-c2ccc(-c3nc4cc(OC)c(OC)c(OC)c4s3)cc2)c1`: the GI50 is 31.1 µM in [1]; greater than 100 µM in assay [2]; 1.87 µM in assay [3]; 4.74 µM in [4]; 6.07 µM in assay [5]; 15 µM in assay [6]. The GI50 in [7] was 19.2 µM; in [8] it was 5.59 µM; in assay [9] it was 1.94 µM; in assay [10], 31.9 µM. The TGI in assay [1] was greater than 100 µM; in assay [2] it was greater than 100 µM; in assay [3], greater than 100 µM; in assay [4], greater than 100 µM; in assay [5], 26.7 µM; in [6], 42.7 µM. The TGI in assay [7] was greater than 100 µM; in [8], greater than 100 µM; in [9], 58.9 µM; in assay [10], greater than 100 µM.

With `O=S(=O)(NCCCNc1cc(-c2cn(-c3ccccc3)nc2-c2cccc(O)c2)ccn1)c1ccc(Cl)cc1`, the GI50 in [1] is 2.33 µM; in assay [2] it was 1.52 µM; in [3], 2.05 µM; in assay [4] it was 1.48 µM; in assay [5] it was 1.67 µM; in [6], 1.45 µM. Moreover, the GI50 in assay [7] was 1.81 µM; in [8], 2.64 µM; in [9], 2.03 µM; in [10] it was 2.23 µM. The TGI in assay [1] was determined as 7.58 µM; in assay [2], 4.74 µM; in assay [3], 29.6 µM; in assay [4] it was 5.21 µM; in assay [5] it was 3.7 µM; in assay [6] it was 7.99 µM. For the same compound, the TGI in [7] was determined as 4.69 µM; in [8], 10.1 µM; in [9] it was 8.64 µM; in assay [10], 6.09 µM.

`CC(C)Oc1ccc(C(=O)N[C@H](CNC(=O)CN(C)C)Cc2ccc(-c3cn4cccc([C@H](C)O)c4n3)cc2)cc1Cl`: the GI50 was 0.0385 µM in assay [1]; 11.2 µM in assay [2]; 0.0547 µM in assay [3]; 3.72 µM in [4]; 0.0393 µM in [5]; 0.0222 µM in [6]. Also, the GI50 in [7] is 0.0445 µM; in [8], 0.0507 µM; in assay [9] it was 2.56 µM; in [10] it was 0.0661 µM. The TGI amounted to 13.1 µM in [1]; 24.3 µM in [2]; 21.6 µM in assay [3]; 30.3 µM in assay [4]; 15.7 µM in assay [5]; 13.3 µM in assay [6]. For the same compound, the TGI amounted to 8.2 µM in assay [7], 22.1 µM in [8], 19.1 µM in [9] and 20.4 µM in assay [10].

With `CNC1C(OC2C(OC3C(O)C(O)C(O)C(O)C3O)OC(C)C2(O)CO)OC(CO)C(O)C1O` (centres undefined) (tested in a mixture with another compound), the TGI in assay [1], in assay [2], in assay [3], in [4], in [5] and in [6] was greater than 100 µM in each case. The TGI in [7], in assay [8], in [9] and in [10] was greater than 100 µM throughout.

With `Oc1cc2ccccc2cc1-c1n[nH]c(=S)n1-c1ccc(Cl)cc1`, the GI50 is 31.2 µM in assay [1]; 46 µM in assay [2]; 28.7 µM in assay [3]; 31.6 µM in assay [4]; 20.3 µM in [5]; 28.7 µM in assay [6]. Further, the GI50 was 8.88 µM in assay [7], 25.3 µM in [8], 23.2 µM in [9] and 10.8 µM in [10]. The TGI in assay [1], in [2], in [3], in [4], in [5] and in assay [6] was greater than 100 µM in each case. For the same compound, the TGI is 38.3 µM in assay [7], greater than 100 µM in assay [8], 71.8 µM in assay [9] and 55.2 µM in assay [10].

On to `O=C(/C=C/c1cccnc1)c1ccccc1O`, for which the GI50 in [1] is 16 µM; in [2], 10.4 µM; in assay [3], 34.7 µM; in assay [4] it was 21 µM; in assay [5], 20.5 µM; in [6], 16.5 µM. Besides, the GI50 in [7] was 17.7 µM; in assay [8] it was 37.1 µM; in assay [9], 13.4 µM; in assay [10], 24.4 µM. In addition, the TGI is 31.6 µM in [1]; 32.5 µM in assay [2]; greater than 100 µM in assay [3]; greater than 100 µM in [4]; 55.2 µM in assay [5]; 59.1 µM in assay [6]. Also, the TGI in assay [7] is 46.7 µM; in assay [8] it was greater than 100 µM; in [9], 28.9 µM; in assay [10] it was 81.9 µM.

For the compound `NC[C@@](O)(c1ccc(Cl)cc1)c1ccc(-c2cn[nH]c2)cc1`, the GI50 in assay [1] is 3.27 µM and 2.49 µM; in assay [2] it was 0.0445 µM and 0.0376 µM; in assay [3] it was 0.556 µM; in assay [4] it was 1.42 µM and 1.23 µM; in [5], 3.22 µM and 1.96 µM; in assay [6] it was 0.11 µM and 0.245 µM. The GI50 in assay [7] is 3.24 µM and 2.76 µM; in assay [8] it was 1.5 µM and 1.41 µM; in assay [9], 0.583 µM and 0.747 µM; in assay [10], 2.39 µM and 1.88 µM. Besides, the TGI in assay [1] was greater than 100 µM; in [2], 1.85 µM and 1.45 µM; in [3] it was greater than 10 µM; in assay [4], 2.87 µM and 2.83 µM; in assay [5], > 25.6 µM and 4.44 µM; in [6] it was 2.41 µM and 3.6 µM. Moreover, the TGI in [7] was 52.3 µM and > 10 µM; in assay [8], 4.08 µM and 3.21 µM; in assay [10], greater than 100 µM.

`O=C1OC2C(O)C(=O)OC2C1O` (centres undefined): the TGI in assay [1], in [2], in [3], in assay [4], in [5] and in assay [6] was greater than 100 µM each time. Besides, the TGI in [7], in assay [8], in [9] and in [10] was greater than 100 µM in each case.
